Results from patent US4853401A, “Spiro-hydantoins as aldose reductase inhibitors” (priority 1987, dated 1989).

Assays:
[1] = Acute oral toxicity (LD50); type: in vivo; details: mouse, in vivo, mice, read-out: Lethal dose LD50
Experimental: (§1) The LD 50 was calculated by the method of Litchfield and Wilcoxon (J. Pharmacol. Exp. Ther., 96, 99, 1949) and is expressed in mg/kg. The products were orally administered to mice.
(§2) Behaviour was studied, 2, 4, 6 and 24 hours after treatment. Observation was continued if symptoms persisted at that time. Deaths were recorded during the 14 days after treatment. The results are given in Table II, in which the numbers of the compounds are the same as the numbers given in column 1 of Table I.

[2] = tested on: mice; test: Effect on behaviour (Irwin method), side effects; type: in vivo
Experimental: The effect on behaviour was studied by a method derived from that of S. Irwin (Gordon Res. Conf. on Medicinal Chem., 133, 1959). The substances, suspended in 1% tragacanth mucilage, were orally administered via an intra-gastric probe to groups of 5 male mice fasted for 18 hours. The maximum tested dose was 3 000 mg/kg or 1 000 mg/kg, and smaller doses were tested if an effect has been observed.
as §2

[3] = molecular target: T1, aldose reductase (Rattus norvegicus, UniProt P07943); test: Inhibition of enzymatic activity of aldose reductase in vitro; type: biochemical; details: 10^-4 M, rat crystalline lens enzyme, pH 6.2, D,L-glyceraldehyde substrate; read-out: Inhibition of enzymatic activity of AR in vitro
T1 construct: The supernatant liquid formed the enzyme solution used for the test; from tissue; host or cells: rat crystalline lens, water homogenate, supernatant
Text: 1.1 Inhibiting effect on enzymatic activity of aldose reductase:
The method described by S. Hayman and J. H. Kinoshita (J. Biol. Chem., 240, 877 (1965)) was used for in vitro testing of the aforementioned effect of the products according to the invention.
Rat's crystalline lens was homogenized in water and centrifuged to eliminate insoluble substances. The supernatant liquid formed the enzyme solution used for the test.
(§3) The effect of products according to the invention in inhibiting enzymatic activity of aldose reductase was determined by spectrophotometrically following for 5 minutes the disappearance of NADPH in an aqueous solution containing 0.067M phosphate buffer (final pH: 6.2), 0.40M lithium sulphate, 5.10^-5 M NADPH, 10^-4 M of the product under test and 100 μl of the enzyme solution, to which 10^-2 M of D,L-glyceraldehyde had been added as substrate. (NADPH=reduced form of nicotinamide adenine dinucleotide phosphate).
The inhibiting effect observed in the presence of 10^-4 M of product under test relative to the reaction in the absence of a compound according to the invention, is expressed as a percentage.

[4] = tested on: accumulation of galactitol in fibroblasts obtained from human skin; test: Inhibition of accumulation of galactitol in fibroblasts; type: cell-based; details: Fibroblast, 48 h, 37° C., galactose 3 mg/ml
Experimental: 1.2 Inhibiting effect on accumulation of galactitol:
A test for evaluating this activity was made in vitro on fibroblasts obtained from human skin.
An experimental model culture was obtained by incubating the cells in the presence of a medium containing a high concentration of galactose (3 mg/ml) and the product under test, and measuring the accumulation of galactitol in the cells after a 48-hour incubation period at 37° C. The cells were then isolated, washed in physiological salt solution and treated with a water-ethanol solution. The medium was centrifuged and the supernatant liquid was lyophylized.
The galactitol in the resulting sample was determined by HPLC (=high pressure liquid chromatography) after derivatives had been obtained with phenyl isocyanate.
The proportion of proteins in the precipitate obtained during the previously-mentioned centrifuging was measured by the method of M. M. Bradford (Anal. Biochem., 72, 248-254 (1976)) and indicated the number of cells present in the sample.
The inhibiting effect of the tested product was expressed as a percentage inhibition of intracellular accumulation of galactitol compared with the controls.

[5] = tested on: accumulation of sorbitol in the crystalline lenses; test: Inhibition of accumulation of sorbitol in crystalline lenses of diabetic rats; type: in vivo, Sprague Dawley rats; details: for Inhibition of accumulation of sorbitol in vivo, crystalline lenses: oral 25 mg/kg at 0, 7 and 24 h, sacrificed 27 h
Experimental: (§4) 2.1 Inhibition of accumulation of sorbitol in crystalline lenses and nerves of diabetic rats:
(§5) The effects of the products according to the invention on the proportion of plasma glucose and the accumulation of sorbitol in the crystalline lenses and sciatic nerves of rats made diabetic by streptozotocin were examined by the method of M. J. Peterson, et al (Metabolism, 28, 456-461 (1979)).
(§6) Fasted Sprague Dawley rats were made diabetic by intraperitoneal injection of streptozotocin (75 mg/kg). The product under test was orally administered at a dose of 25 mg/kg after 0, 7 and 24 hours. The rats were sacrificed 27 hours after induction of diabetes. The crystalline lenses and sciatic nerves were taken and preserved at -20° C. until analysed. The crystalline lenses and sciatic nerves were homogenized in water and the proteins were precipitated from ethanol. The precipitate was eliminated by centrifuging and the supernatant liquid was lyophylised. The sorbitol in the sample was determined by the method of B. Bjorkqvist (J. of Chromatograph, 218, 65-71 (1981)), adapted by A. Lenaers et al. (Arch. Intern. Physiol. Bioch., 91, B, 62-63 (1983)).
(§7) The sample was dissolved in pyridine containing galactitol as an internal standard. Derivatives were formed therefrom by phenylisocyanate during incubation for 1 hour at 60° C. The reaction was then stopped by adding methanol and the derivatives were separated and determined by HPLC.
(§8) The results are expressed as percentage inhibition of the accumulation of sorbitol, compared with the controls.

[6] = tested on: accumulation of sorbitol in the sciatic nerves; test: Inhibition of accumulation of sorbitol in sciatic nerves of diabetic rats; type: in vivo, Sprague Dawley rats; details: oral 25 mg/kg at 0, 7 and 24 h, sacrificed 27 h
Experimental: as §4, §5, §6, §7, §8

[7] = tested on: sorbitol accumulation in crystalline lenses; test: Effect of in vivo doses on sorbitol accumulation in crystalline lenses of diabetic rats; set-up: species or system Sprague Dawley rats; details: for ED50: Rattus norvegicus, 27 h, diabetic rats, oral, read-out: ED50 (dose at which measured inhibition of aldose reductase activity is 50%); for ED50 / therapeutic index MED/ED50, crystalline lenses: crystalline lenses
Text: (§9) 2.2 Effect of "in vivo" doses on sorbitol accumulation in sciatic nerves and crystalline lenses of diabetic rats:
(§10) Estimates were made of the effects of the products on the proportion of plasma glucose and the sorbitol content of the crystalline lenses and sciatic nerves of rats.

[8] = tested on: sorbitol accumulation in sciatic nerves; test: Effect of in vivo doses on sorbitol accumulation in sciatic nerves of diabetic rats; set-up: species or system Sprague Dawley rats; details: for ED50: Rattus norvegicus, 27 h, diabetic rats, oral, read-out: ED50 (dose at which measured inhibition of aldose reductase activity is 50%); for ED50 / therapeutic index MED/ED50, sciatic nerves: sciatic nerves
Text: as §9, §10

[9] = Effect of in vivo doses on plasma glucose of diabetic rats; set-up: species or system Sprague Dawley rats; details: n = 5, average ± standard deviation
Experimental: Compound No. 1 (CP 3182 AR) and No. 2 (CP 3192 AR) were evaluated at various doses, using the experimental model described hereinbefore (.sctn.2.1).
In the case of each product, 25 Sprague Dawley rats fasted the previous day were made diabetic by an intraperitoneal injection of streptozotocin (75 mg/kg). The rats were divided into 5 groups of 5, each orally given 0.3, […] or 10 mg/kg of CP 3182 AR or a control.
An identical experiment was performed with CP 3192 AR at the same doses. Treatment was given immediately after the streptozotocin, and 7 and 24 hours later. The animals were sacrificed 27 hours after induction. Estimates were made of the effects of the products on the proportion of plasma glucose and the sorbitol content of the crystalline lenses and sciatic nerves of rats.

[10] = Solubility in the aldose reductase test medium; type: physicochemical; details: 10^-4 M, aqueous phosphate buffer pH 6.2
Experimental: as §3

[11] = tested on: mice; test: Acute oral toxicity (LD50); type: in vivo; details: 3 000 mg/kg
Experimental: as §1, §2

O=C1N(CO)C(=O)C2(c3ccccc3-c3ccccc32)N1CO [Compound 1, bis-(1',3'-hydroxymethyl)-spiro-/fluorene-9,4'-imidazolidine/-2',5'-dione]
LD50 at 336 h [1]: > 3000 mg/kg
side effect observed ([2]; dose of 3000 mg/kg): no side effect was observed
MED (minimum dose at which a side effect is observed) ([2]; mice, oral): > 3 000 mg/kg
inhibition at 100 µM [3]: 34%
inhibition at 100 µM ([4]; 10^-4 M): 85%
inhibition at 10 µM ([4]; 10^-5 M): 58%
inhibition at 1 µM ([4]; 10^-6 M): 21%
Inhibition of accumulation of sorbitol in vivo, crystalline lenses [5]: 81%
inhibition of accumulation of sorbitol in crystalline lenses and sciatic nerves (in words) ([5]; oral 25 mg/kg, lenses and sciatic nerves): particularly active
Inhibition of accumulation of sorbitol in vivo, in sciatic nerves [6]: 85%
% inhibition of sorbitol accumulation, Crystalline lenses ([7]; 0.3 mg/kg oral at 0, 7, 24 h): 0 ± 21%
% inhibition of sorbitol accumulation, Crystalline lenses ([7]; 1 mg/kg oral at 0, 7, 24 h): 1 ± 3%
% inhibition of sorbitol accumulation, Crystalline lenses ([7]; 3 mg/kg oral at 0, 7, 24 h): 41%
% inhibition of sorbitol accumulation, Crystalline lenses ([7]; 10 mg/kg oral at 0, 7, 24 h): 71%
ED50 [7]: 3 mg/kg
therapeutic index MED/ED50, crystalline lenses [7]: about 1 000
% inhibition of sorbitol accumulation, Sciatic nerves ([8]; 0.3 mg/kg oral at 0, 7, 24 h): 29 ± 14%
% inhibition of sorbitol accumulation, Sciatic nerves ([8]; 1 mg/kg oral at 0, 7, 24 h): 41 ± 10%
% inhibition of sorbitol accumulation, Sciatic nerves ([8]; 3 mg/kg oral at 0, 7, 24 h): 69 ± 8%
% inhibition of sorbitol accumulation, Sciatic nerves ([8]; 10 mg/kg oral at 0, 7, 24 h): 82 ± 6%
ED50 [8]: 1 mg/kg
therapeutic index MED/ED50, sciatic nerves [8]: above 3 000
Plasma glucose ([9]; 0.3 mg/kg oral): 462 ± 60 mg/100 ml
Plasma glucose ([9]; 1 mg/kg oral): 538 ± 34 mg/100 ml
Plasma glucose ([9]; 3 mg/kg oral): 464 ± 62 mg/100 ml
Plasma glucose ([9]; 10 mg/kg oral): 424 ± 37 mg/100 ml

O=C(Cc1ccccc1)OCN1C(=O)N(COC(=O)Cc2ccccc2)C2(C1=O)c1ccccc1-c1ccccc12 [Compound 23]
Inhibition of accumulation of sorbitol in vivo, crystalline lenses [5]: 5%
Inhibition of accumulation of sorbitol in vivo, in sciatic nerves [6]: 7%
insolubility in the tested medium [10]: insol

O=C1NC(=O)[C@@]2(CCOc3ccc(F)cc32)N1 [sorbinil, d-6-fluoro-spiro-/chromane-4,4'-imidazolidine/-2',5'-dione, reference compound]
LD50 at 336 h [1]: 1450 mg/kg
mortality [11]: all the mice died on the second day
MED (minimum dose at which a side effect is observed) ([2]; mouse, in vivo, po): 300 mg/kg
duration of side effects ([2]; mouse, in vivo, po, 300 mg/kg): more than 24 hours
side-effects ([2]; mouse, in vivo, po, 300 mg/kg): depression with loss of righting reflex and muscular hypotonia
Inhibition of accumulation of sorbitol in vivo, crystalline lenses [5]: 93%
Inhibition of accumulation of sorbitol in vivo, in sciatic nerves [6]: 85%
ED50 [7]: 1 mg/kg
therapeutic index MED/ED50, crystalline lenses [7]: 300
ED50 [8]: 1 mg/kg
therapeutic index MED/ED50, sciatic nerves [8]: 300
